Data taken from patent US8158589B2, “Peptides with the capacity to bind to transforming growth factor β1 (TGF-β1)” (Proyecto Biomedicine Cima, S.L., priority 2003, dated 2012).
Ends that are not written are not given here.

What was measured:
TGF-β1 [1] = biological target: T1, TGF-β1 (Rattus norvegicus, UniProt P17246); experiment: Corneal fibrosis and haze after 1 N NaOH damage, topical eye drops, photographs analysed with ImageJ; format: in vivo, Long-Evans rats; settings: fifth formulation eye drops, treated right eye vs control left eye
T1 construct: from tissue; host or cells: cornea of Long-Evans rats
T1 sequence (P17246 279-390 limits assumed): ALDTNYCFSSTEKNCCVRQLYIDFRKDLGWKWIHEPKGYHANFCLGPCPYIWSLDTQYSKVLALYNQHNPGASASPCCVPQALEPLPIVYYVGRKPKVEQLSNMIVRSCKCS
Excerpt: Male Long-Evans rats aged 10 weeks were used, divided into 5 groups: • Group 1: 12 rats, 6 treated with dexamethasone and 6 treated with mitomycin C • Group 2: 12 rats, 6 treated with p17 of the first formulation (see section 6.1.2.b) and 6 treated with p144 of the first formulation (see section 6.1.2.b) • Group 3: 12 rats, 6 treated with p17 of the second formulation (see section 6.1.2.b) and 6 treated with p144 of the second formulation (see section 6.1.2.b) • Group 4: 12 rats, 6 treated with p17 of the third formulation (see section 6.1.2.b) and 6 treated with p144 of the third formulation (see section 6.1.2.b) • Group 5: 12 rats, 6 treated with p17 of the fourth formulation (see section 6.1.2.b) and 6 treated with p144 of the fourth formulation (see section 6.1.2.b) • Group 6: 12 rats, 6 treated with p17 of the fifth formulation (see section 6.1.2.b) and 6 treated with p144 of the fifth formulation (see section 6.1.2.b)
To perform the damage in the cornea, the animals were anesthetized with isoflurane and a 5 mm Whatman paper disc impregnated in 1 N NaOH for 30 seconds was applied to them in the central part of the eye. After the damage, they were washed with abundant physiological saline serum and an antibiotic ointment was applied to them to prevent possible infections in the affected area.
After conducting several in vivo studies with the previously described groups of animals, it could be concluded that the chemical damage occurring after the application of NaOH for 30 seconds caused an excessive lesion for the study which was to be conducted, therefore it was decided to conduct new experiments reducing the time to 15 seconds.
It was randomly established that the left eye of each animal would act as a control and that the right eye would be the treated eye, such that the same animals acts as a control in addition to being treated. It must be pointed out that all the animals received antibiotic treatment in both eyes daily only during the first week of the study for the purposes of avoiding microbial keratitis.
Starting from 0.15% sodium hyaluronate (Hyabak 10 mL, Thea) without preservatives: • p144: 20 mg were dissolved in 5 ml of eye drops, 40 μl of saturated concentrated NaOH were incorporated, stirring and adding in portions of 5 μl. It was sonicated until solubilization. To adjust the pH, 500 μl of 1M Hepes were added, such that the pH changed from 10.5 to 7 • p144 control: 40 μl of saturated NaOH and 500 μl of 1 M HEPES (final concentration of HEPES 50 mM) • p17: 20 mg were dissolved in 5 ml of the eye drops, it was sonicated until complete solubilization and it was incorporated to the vial with a 10 ml syringe and a blue needle to perforate the filter of the contained (final concentration 2 mg/ml) • p17 control: non-manipulated eye drops • Note: The formulations were maintained at 4° C. throughout the study.
The administration of the treatment was initiated twenty-four hours after the damage. After that time a follow-up of the damage was performed, which consisted of taking photographs at days 0, 7, 14, 21, 28 and 35. To take the photographs the animals were anesthetized with isoflurane. Photographs were taken of both the control eye (left) and of the treated eye (right) with and without fluorescein. The photographs with fluorescein allowed to observe the evolution of the epithelial closure of the generated lesion, whereas the photographs without fluorescein show the evolution of the haze of the lesioned area. […]

TGF-β1 [2] = biological target: T2, TGF-β1 (Homo sapiens, UniProt P01137); experiment: Immunofluorescence of p-Smad2 translocation to the nucleus in rabbit corneal fibroblasts; format: cell-based; design: host or cells: added to a primary culture of rabbit corneal fibroblasts; settings: TGF-β1 treated rabbit corneal fibroblasts
Method: Therefore, Western Blot and immunofluorescence studies were conducted to determine, from cells extracted from the in vivo studies, the signaling pathway used by the peptides administered topically. It should be emphasized that said studies were conducted on fibroblasts from rabbit cornea and not from rat cornea. This decision was made due to the difficulty entailed in isolating fibroblasts from rodent eyes.
Target sequence in this assay (P01137 279-390 limits assumed, species assumed): as the sequence (P17246 279-390 limits assumed) above, with S75A counted along it

TGF-β1 [3] = biological target: T2, TGF-β1; experiment: α-SMA expression induced by TGF-β1 in IMR-90 lung fibroblasts, western blot; format: cell-based; design: purchased R&D Systems; host or cells: added to IMR-90 human lung fibroblasts; settings: IMR-90 cells, 5 ng/ml TGF-β1, peptide 100 μg/ml, 24 hours
Method: IMR-90 human lung fibroblasts (ATCC, Manassas, Va.) were cultured in EMEM medium (Cambrex, Belgium) supplemented with 10% fetal bovine serum (FBS), 1 mM sodium pyruvate, 0.1 mM nonessential amino acids, 100 U/ml penicillin and 100 μg/ml streptomycin (Gibco BRL, UK). For experiments, 6×10^4 cells/well were cultured in 6-well plates in 2 ml of medium and when they were 80% confluent, medium was replaced with serum-free EMEM for 48 h to induce quiescence. TGF-β1 (5 ng/ml) and P17 (100 μg/ml) were co-incubated for 90 min at 37° C. to allow binding of both molecules before addition to cell cultures. Quiescent cells were then stimulated with TGF-β1 and/or P17 for up to 6 or 24 h. After these incubation periods, fibroblasts were harvested for gene and protein analysis, respectively.
To assess alpha-Smooth Muscle Actin (αSMA) expression, IMR-90 fibroblasts were lysed with RIPA buffer containing 10 U/ml leupeptin, 10 U/ml pepstatin, 1 mM phenylmethanesulfonylfluoride (PMSF), 1 mM Na3VO4 and 1 mM NaF. […] Membranes were analyzed for expression of αSMA protein using anti-αSMA monoclonal antibody (Sigma-Aldrich) at a dilution of 1:2000 and horseradish peroxidase-labeled anti-mouse IgG (Sigma-Aldrich). Expression of actin was detected using anti-actin monoclonal antibody (Sigma-Aldrich) (1:2000 dilution) and horseradish peroxidase-labeled anti-rabbit IgG (Sigma-Aldrich). […]
Target sequence in this assay (P01137 279-390 limits assumed): as the sequence (P17246 279-390 limits assumed) above, with S75A counted along it

translocation of p-Smad2 to the nucleus (TGF-β1 [2]): did not inhibit | α-SMA expression induced by TGF-β1 (TGF-β1 [3]): inhibited
Sequence: KRIWFIPRSSWYERA [SEQ ID NO: 17, KRIWFIPRSSWYERA]
corneal haze (TGF-β1 [1]): clear decrease | epithelial closure (fluorescein) (TGF-β1 [1]): clear decrease
